Experimental data taken from US10273236B2, “Macrocyclic factor XIa inhibitors bearing heterocyclic groups” (Bristol-Myers Squibb Company, priority 2014, dated 2019).
Where a name gives a salt, the structure may show the parent alone.

Assays:
[1] = biological target: T1, purified human Factor XIa (Homo sapiens, UniProt P03951); assay: Factor XIa inhibition assay, chromogenic substrate S-2366 (Ki); assay type: biochemical
T1 construct: purchased Haematologic Technologies
In short: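 Purified human FXIa (25-200 pM final) with S-2366 (0.0002-0.001 M) in 50 mM HEPES pH 7.4, 145 mM NaCl, 5 mM KCl, 0.1% PEG 8000. Velocities of absorbance change measured over 20-180 min with inhibitor present; Ki calculated for competitive inhibition from rates or IC50 via Ki=IC50/(1+S/Km).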

[2] = biological target: T2, purified human plasma kallikrein (Homo sapiens, UniProt P03952); assay: Plasma kallikrein inhibition assay, chromogenic substrate S-2302 (Ki); assay type: biochemical
T2 construct: Plasma prekallikrein is a zymogen of a trypsin-like serine protease; purchased Enzyme Research Laboratories
In short: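 Purified human plasma kallikrein (200 pM final) with chromogenic substrate S-2302 at 0.00008-0.0004 M in 0.1 M sodium phosphate pH 7.5, 0.1-0.2 M NaCl, 0.5% PEG 8000. Velocities measured over 20-180 min with and without inhibitor; Ki derived assuming competitive inhibition, e.g. Ki=IC50/(1+S/Km).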

T1 sequence (P03951 388-625 limits assumed): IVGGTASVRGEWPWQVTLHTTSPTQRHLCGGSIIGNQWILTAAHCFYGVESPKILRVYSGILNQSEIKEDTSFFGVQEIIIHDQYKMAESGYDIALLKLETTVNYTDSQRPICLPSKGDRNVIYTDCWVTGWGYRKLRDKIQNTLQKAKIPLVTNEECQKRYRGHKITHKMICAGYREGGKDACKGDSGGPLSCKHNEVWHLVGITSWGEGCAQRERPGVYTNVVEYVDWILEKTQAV
T1 sequence (P03951 19-387 partner limits assumed): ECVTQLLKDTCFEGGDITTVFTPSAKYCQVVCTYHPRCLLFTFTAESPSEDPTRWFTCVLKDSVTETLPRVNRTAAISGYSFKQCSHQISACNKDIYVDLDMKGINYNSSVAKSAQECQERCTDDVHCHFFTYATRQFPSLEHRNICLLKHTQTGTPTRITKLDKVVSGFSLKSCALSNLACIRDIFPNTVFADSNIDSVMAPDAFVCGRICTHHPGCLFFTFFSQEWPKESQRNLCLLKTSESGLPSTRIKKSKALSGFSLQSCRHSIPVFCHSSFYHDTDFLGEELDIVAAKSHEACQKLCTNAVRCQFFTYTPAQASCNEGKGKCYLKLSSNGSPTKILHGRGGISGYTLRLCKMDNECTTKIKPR
T2 sequence (P03952 391-638 limits assumed): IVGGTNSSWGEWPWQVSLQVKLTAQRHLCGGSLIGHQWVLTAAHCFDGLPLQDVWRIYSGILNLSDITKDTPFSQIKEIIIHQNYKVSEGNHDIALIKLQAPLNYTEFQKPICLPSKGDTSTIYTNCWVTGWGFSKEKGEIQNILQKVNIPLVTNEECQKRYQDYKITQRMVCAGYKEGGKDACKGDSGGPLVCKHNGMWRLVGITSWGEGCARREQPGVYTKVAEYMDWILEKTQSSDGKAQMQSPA
T2 sequence (P03952 20-390 partner limits assumed): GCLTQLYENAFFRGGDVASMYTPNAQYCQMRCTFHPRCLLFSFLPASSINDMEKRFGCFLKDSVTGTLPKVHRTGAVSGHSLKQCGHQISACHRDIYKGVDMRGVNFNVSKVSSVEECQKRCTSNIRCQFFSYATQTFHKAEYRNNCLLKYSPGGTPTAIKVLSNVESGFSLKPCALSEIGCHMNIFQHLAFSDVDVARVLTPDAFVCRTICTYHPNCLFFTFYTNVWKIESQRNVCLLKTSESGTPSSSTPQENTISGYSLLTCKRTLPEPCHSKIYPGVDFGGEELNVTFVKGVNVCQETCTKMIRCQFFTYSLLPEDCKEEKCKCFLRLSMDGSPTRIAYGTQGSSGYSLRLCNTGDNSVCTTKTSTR

| SMILES | Ki [1] | Ki [2] |
| --- | --- | --- |
| [2H]C([2H])([2H])n1ncc2c1-c1cccc(c1)[C@@H](N1CCC(c3cc(Cl)ccc3-n3cc(Cl)nn3)=CC1=O)CCC[C@@H](C)C(=O)N2 [Example 51, (9R,13S)-13-{4-[5-chloro-2-(4-chloro-1H-1,2,3-triazol-1-yl)phenyl]-6-oxo-1,2,3,6-tetrahydropyridin-1-yl}-3-(^2H3)methyl-9-methyl-3,4,7-triazatricyclo[12.3.1.0^2,6]octadeca-1(18),2(6),4,14,16-pentaen-8-one] | 0.18 nM | 5 nM |
| C[C@@H]1CCC[C@H](N2CCC(c3cc(Cl)ccc3-n3cc(Cl)nn3)=CC2=O)c2cc(ccn2)-c2c(cnn2CC(F)F)NC1=O [Example 52, (9R,13S)-13-{4-[5-chloro-2-(4-chloro-1H-1,2,3-triazol-1-yl)phenyl]-6-oxo-1,2,3,6-tetrahydropyridin-1-yl}-3-(2,2-difluoroethyl)-9-methyl-3,4,7,15-tetraazatricyclo[12.3.1.0^2,6]octadeca-1(18),2(6),4,14,16-pentaen-8-one] | 0.76 nM | 22 nM |
| C[C@@H]1CCC[C@H](N2CCC(c3cc(Cl)ccc3-n3ccnn3)=CC2=O)c2cc(ccn2)-c2c(cnn2C(F)F)NC1=O [Example 53, (9R)-13-{4-[5-chloro-2-(1H-1,2,3-triazol-1-yl)phenyl]-6-oxo-1,2,3,6-tetrahydropyridin-1-yl}-3-(difluoromethyl)-9-methyl-3,4,7,15-tetraazatricyclo[12.3.1.0^2,6]octadeca-1(18),2(6),4,14,16-pentaen-8-one] | 0.87 nM | 37 nM |
| C[C@@H]1CCC[C@H](N2CCC(c3cc(Cl)ccc3-n3ccnn3)=CC2=O)c2cc(ccn2)-c2c(cnn2C2CCC2)NC1=O [Example 54, (9R,13S)-13-{4-[5-chloro-2-(1H-1,2,3-triazol-1-yl)phenyl]-6-oxo-1,2,3,6-tetrahydropyridin-1-yl}-3-cyclobutyl-9-methyl-3,4,7,15-tetraazatricyclo[12.3.1.0^2,6]octadeca-1(18),2(6),4,14,16-pentaen-8-one] | 7.1 nM | 150 nM |
| C[C@@H]1CCC[C@H](N2CCC(c3cc(Cl)ccc3-n3cc(Cl)nn3)=CC2=O)c2cc(ccn2)-c2c(cnn2C(F)F)NC1=O [Example 55, (9R,13S)-13-{4-[5-chloro-2-(4-chloro-1H-1,2,3-triazol-1-yl)phenyl]-6-oxo-1,2,3,6-tetrahydropyridin-1-yl}-3-(difluoromethyl)-9-methyl-3,4,7,15-tetraazatricyclo[12.3.1.0^2,6]octadeca-1(18),2(6),4,14,16-pentaen-8-one] | 0.1 nM | 6 nM |
| C[C@@H]1CCC[C@H](N2CCC(c3cc(Cl)ccc3-n3cc(Cl)nn3)=CC2=O)c2cc(ccn2)-c2c(cnn2C2CC2(F)F)NC1=O (stereo partly drawn) [Example 56, (9R,13S)-13-{4-[5-chloro-2-(4-chloro-1H-1,2,3-triazol-1-yl)phenyl]-6-oxo-1,2,3,6-tetrahydropyridin-1-yl}-3-(2,2-difluorocyclopropyl)-9-methyl-3,4,7,15-tetraazatricyclo[12.3.1.0^2,6]octadeca-1(18),2(6),4,14,16-pentaen-8-one] | 0.36 nM | 30 nM |
| C[C@@H]1CCC[C@H](N2CCC(c3cc(Cl)ccc3C#N)=CC2=O)c2cc(ccn2)-c2c(cnn2C)NC1=O [Example 57, 4-chloro-2-{1-[(9R,13S)-3,9-dimethyl-8-oxo-3,4,7,15-tetraazatricyclo[12.3.1.0^2,6]octadeca-1(18),2(6),4,14,16-pentaen-13-yl]-6-oxo-1,2,3,6-tetrahydropyridin-4-yl}benzonitrile] | 4 nM | 14 nM |
| C[C@@H]1CCC[C@H](N2CCC(c3cc(Cl)ccc3-n3cc(Cl)nn3)=CC2=O)c2cc(ccn2)-c2[nH]ncc2NC1=O [Example 58, (9R,13S)-13-{4-[5-chloro-2-(4-chloro-1H-1,2,3-triazol-1-yl)phenyl]-6-oxo-1,2,3,6-tetrahydropyridin-1-yl}-9-methyl-3,4,7,15-tetraazatricyclo[12.3.1.0^2,6]octadeca-1(18),2(6),4,14,16-pentaen-8-one] | 2.4 nM | 46 nM |

Second part, the compound after the results:

| Ki [1] | Ki [2] | SMILES |
| --- | --- | --- |
| 0.1 nM | 4 nM | C[C@@H]1CCC[C@H](N2CCC(c3cc(Cl)ccc3-n3cc(Cl)nn3)=CC2=O)c2cc(F)cc(c2)-c2c(cnn2C)NC1=O [Example 59, (9R,13S)-13-{4-[5-chloro-2-(4-chloro-1H-1,2,3-triazol-1-yl)phenyl]-6-oxo-1,2,3,6-tetrahydropyridin-1-yl}-16-fluoro-3,9-dimethyl-3,4,7-triazatricyclo[12.3.1.0^2,6]octadeca-1(18),2(6),4,14,16-pentaen-8-one] |
| 7.2 nM | 22 nM | C[C@@H]1CCC[C@H](N2CCC(c3c(C(F)(F)F)ccc(Cl)c3F)=CC2=O)c2cc(ccn2)-c2c(cnn2C2CC2)NC1=O [Example 60, (9R,13S)-13-{4-[3-chloro-2-fluoro-6-(trifluoromethyl)phenyl]-6-oxo-1,2,3,6-tetrahydropyridin-1-yl}-3-cyclopropyl-9-methyl-3,4,7,15-tetraazatricyclo[12.3.1.0^2,6]octadeca-1(18),2(6),4,14,16-pentaen-8-one] |
| 0.51 nM | 66 nM | C[C@@H]1CCC[C@H](n2ncc(-c3cc(Cl)ccc3-n3cc(C(F)(F)F)nn3)cc2=O)c2cc(ccn2)-c2c(cnn2C)NC1=O [Example 61, (9R,13S)-13-(4-{5-chloro-2-[4-(trifluoromethyl)-1H-1,2,3-triazol-1-yl]phenyl}-6-oxo-1,6-dihydropyridazin-1-yl)-3,9-dimethyl-3,4,7,15-tetraazatricyclo[12.3.1.02,6]octadeca-1(18),2(6),4,14,16-pentaen-8-one trifluoroacetate] |
| 0.1 nM | 6 nM | [2H]C([2H])([2H])n1ncc2c1-c1ccnc(c1)[C@@H](n1ccc(-c3cc(Cl)ccc3-n3cc(C(F)(F)F)nn3)cc1=O)CCC[C@@H](C)C(=O)N2 [Example 62, (9R,13S)-13-(4-{5-Chloro-2-[4-(trifluoromethyl)-1H-1,2,3-triazol-1-yl]phenyl}-2-oxo-1,2-dihydropyridin-1-yl)-3-(^2H3)methyl-9-methyl-3,4,7,15-tetraazatricyclo[12.3.1.0^2,6]octadeca-1(18),2(6),4,14,16-pentaen-8-one, trifluoroacetate] |
| 0.52 nM | 77 nM | [2H]C([2H])([2H])n1ncc2c1-c1ccnc(c1)[C@@H](n1ncc(-c3cc(Cl)ccc3-n3cc(C(F)(F)F)nn3)cc1=O)CCC[C@@H](C)C(=O)N2 [Example 63, (9R,13S)-13-(4-{5-Chloro-2-[4-(trifluoromethyl)-1H-1,2,3-triazol-1-yl]phenyl}-6-oxo-1,6-dihydropyridazin-1-yl)-3-(^2H3)methyl-9-methyl-3,4,7,15-tetraazatricyclo[12.3.1.0^2,6]octadeca-1(18),2(6),4,14,16-pentaen-8-one trifluoroacetate] |
| 0.71 nM | 52.6 nM | [2H]C([2H])([2H])n1ncc2c1-c1cc(ccn1)[C@@H](n1ncc(-c3cc(Cl)ccc3-n3cc(C(F)(F)F)nn3)cc1=O)CCC[C@@H](C)C(=O)N2 [Example 64, (9R,13S)-13-(4-{5-Chloro-2-[4-(trifluoromethyl)-1H-1,2,3-triazol-1-yl]phenyl}-6-oxo-1,6-dihydropyridazin-1-yl)-3-(^2H3)methyl-9-methyl-3,4,7,17-tetraazatricyclo[12.3.1.0^2,6]octadeca-1(18),2(6),4,14,16-pentaen-8-one] |
